Measured values from ChEMBL document CHEMBL1201862, “PubChem BioAssay data set” (2004).
Activity calls are given as the source filed them.

What was measured:
[1] = Luminescence Cell-Based Dose Confirmation HTS to Identify Inhibitors of Polyadenylation.; type: functional
INS1 = assay: beta cell apoptosis inhibitors, cytokine rescue, dose response, luminescence, retest (AID 449756); type: functional, cell-based; settings: Rattus norvegicus, INS1;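 note: cell death triggered by IL-1 beta plus TNF-alpha plus IFN-gamma mixture; protective hits raise ATP signal compared with cytokine alone wells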
[2] = Shn3 3'UTR reporter inhibitors, dose response, cell-based, Clone20 osteoblasts, firefly luciferase, cherry-picked (AID 624132); type: functional;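 note: firefly luciferase luminescence from reporter carrying the Shn3 3'UTR in osteoblasts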
[3] = HepG2 cell cytotoxicity, dose response, cytotoxicity control for Shn3 inhibitor project, CellTiter-Glo, cherry-picked (AID 624134); type: functional, cell-based
[4] = control 3'UTR Renilla luciferase suppression, dose response, counter-screen for Shn3 inhibitor project, cell-based, Clone20-Shn3RL, cherry-picked (AID 624133); type: functional
NADPH oxidase 1 = NADPH oxidase 1 (Homo sapiens, UniProt Q9Y5S8); assay: Late-stage luminescence-based cell-based dose response assay to identify inhibitors of NADPH oxidase 1 (NOX1): Purchased analogs 2.; type: functional
[5] = target: 5-hydroxytryptamine receptor 1E (Homo sapiens, UniProt P28566); assay: Counterscreen assay for S1P3 antagonists: Dose response cell-based high throughput screening assay to identify antagonists of the 5-Hydroxytryptamine Receptor Subtype 1E (5HT1E). [Related pubchem assays: 1429, 485 ]; type: functional
5-hydroxytryptamine receptor 1E, sequence (P28566 whole entry): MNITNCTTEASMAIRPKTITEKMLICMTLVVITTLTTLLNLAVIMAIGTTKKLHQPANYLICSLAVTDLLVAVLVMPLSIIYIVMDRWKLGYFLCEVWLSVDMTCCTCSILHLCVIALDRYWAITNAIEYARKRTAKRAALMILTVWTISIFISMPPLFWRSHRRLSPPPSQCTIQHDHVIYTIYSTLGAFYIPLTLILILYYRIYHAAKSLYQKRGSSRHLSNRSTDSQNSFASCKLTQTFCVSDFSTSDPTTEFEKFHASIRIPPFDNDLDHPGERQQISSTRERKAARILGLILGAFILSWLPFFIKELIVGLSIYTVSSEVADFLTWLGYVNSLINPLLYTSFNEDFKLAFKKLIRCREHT

[6] = inhibitors of intracellular T. cruzi replication, confirmation, NIH3T3 host cells, beta-gal luminescence (AID 2044); type: functional, cell-based;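 note: intracellular parasites grown in NIH/3T3 mouse fibroblasts as host cells; luminescent beta-galactosidase reporter signal from transgenic T. cruzi replicating inside host cells; inhibitors lower the luminescence signal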
[7] = cytotoxicity toward NIH3T3 fibroblasts, dose response, counter-screen, cell-based, ATP luminescence, mouse fibroblasts (AID 2010); type: functional;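 note: cells exposed to compound for about 90 hours before reading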
[8] = target: T1, Sphingosine 1-phosphate receptor 3 (Homo sapiens, UniProt Q99500); assay: Dose response cell-based high throughput screening assay for antagonists of the Sphingosine 1-Phosphate Receptor 3 (S1P3). [Related pubchem assays: 1429, 485 ]; type: functional
T1 sequence (Q99500 whole entry): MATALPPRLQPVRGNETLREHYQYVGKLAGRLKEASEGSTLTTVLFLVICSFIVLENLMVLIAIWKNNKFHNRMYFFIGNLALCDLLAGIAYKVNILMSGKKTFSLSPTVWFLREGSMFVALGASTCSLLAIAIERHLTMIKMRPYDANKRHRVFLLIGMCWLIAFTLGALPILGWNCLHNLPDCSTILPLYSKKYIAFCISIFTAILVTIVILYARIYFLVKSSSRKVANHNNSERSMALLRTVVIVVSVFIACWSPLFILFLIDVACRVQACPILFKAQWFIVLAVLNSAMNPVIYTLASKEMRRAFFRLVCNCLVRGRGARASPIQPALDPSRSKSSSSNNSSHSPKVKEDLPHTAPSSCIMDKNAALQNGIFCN

[9] = target: Aryl hydrocarbon receptor (Homo sapiens, UniProt P35869); assay: Luminescence-based cell-based high throughput dose response assay for activators of the Aryl Hydrocarbon Receptor (AHR). [Related pubchem assays: 2796 (Primary screen (AHR activators in singlicate)), 2845 (Confirmation screen (AHR activators in triplicate)), 434939 (Counterscreen (PXR activators in triplicate)), 2804 (Summary (AHR activators))]; type: ADME
Aryl hydrocarbon receptor, sequence (P35869 whole entry): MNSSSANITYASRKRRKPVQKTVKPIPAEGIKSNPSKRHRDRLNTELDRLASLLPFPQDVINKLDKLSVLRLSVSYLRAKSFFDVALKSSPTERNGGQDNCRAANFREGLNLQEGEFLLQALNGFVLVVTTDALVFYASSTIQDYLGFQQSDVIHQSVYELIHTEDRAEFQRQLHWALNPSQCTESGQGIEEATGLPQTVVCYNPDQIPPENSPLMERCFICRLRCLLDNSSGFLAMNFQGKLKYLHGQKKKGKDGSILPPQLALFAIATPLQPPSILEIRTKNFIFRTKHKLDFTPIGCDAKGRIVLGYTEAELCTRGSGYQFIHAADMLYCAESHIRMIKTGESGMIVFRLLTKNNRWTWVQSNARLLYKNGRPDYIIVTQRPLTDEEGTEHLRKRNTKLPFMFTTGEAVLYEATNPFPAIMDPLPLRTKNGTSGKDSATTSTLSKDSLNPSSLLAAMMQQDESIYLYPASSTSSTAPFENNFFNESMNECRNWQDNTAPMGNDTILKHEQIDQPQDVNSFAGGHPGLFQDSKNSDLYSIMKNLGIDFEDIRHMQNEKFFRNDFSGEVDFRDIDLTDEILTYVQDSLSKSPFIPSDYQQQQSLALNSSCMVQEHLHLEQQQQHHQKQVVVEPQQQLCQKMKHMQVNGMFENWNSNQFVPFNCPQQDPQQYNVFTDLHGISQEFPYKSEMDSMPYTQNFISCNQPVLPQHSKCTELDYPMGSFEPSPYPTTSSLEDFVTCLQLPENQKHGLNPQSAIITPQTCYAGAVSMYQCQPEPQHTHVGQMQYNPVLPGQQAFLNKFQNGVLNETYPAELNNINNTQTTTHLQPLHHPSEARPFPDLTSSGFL

[10] = tested on: Streptococcus sp. 'group A'; assay: growth inhibition of control SK(-) GAS strain, dose response, counter-screen for streptokinase expression inhibitor project, luminescence, kanamycin, BacTiterGlo, confirmation (AID 1900); type: functional, organism-based
Streptokinase A = target: T2, Streptokinase A (Streptococcus pyogenes serotype M1, UniProt P10520); assay: S. pyogenes streptokinase expression inhibitors, potency, dose response, plasminogen activation absorbance, OD405 (AID 1914); type: functional, Streptococcus pyogenes M1 GAS;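 note: secreted streptokinase activity via plasminogen activation per viability signal from cell pellet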
T2 sequence (P10520 whole entry): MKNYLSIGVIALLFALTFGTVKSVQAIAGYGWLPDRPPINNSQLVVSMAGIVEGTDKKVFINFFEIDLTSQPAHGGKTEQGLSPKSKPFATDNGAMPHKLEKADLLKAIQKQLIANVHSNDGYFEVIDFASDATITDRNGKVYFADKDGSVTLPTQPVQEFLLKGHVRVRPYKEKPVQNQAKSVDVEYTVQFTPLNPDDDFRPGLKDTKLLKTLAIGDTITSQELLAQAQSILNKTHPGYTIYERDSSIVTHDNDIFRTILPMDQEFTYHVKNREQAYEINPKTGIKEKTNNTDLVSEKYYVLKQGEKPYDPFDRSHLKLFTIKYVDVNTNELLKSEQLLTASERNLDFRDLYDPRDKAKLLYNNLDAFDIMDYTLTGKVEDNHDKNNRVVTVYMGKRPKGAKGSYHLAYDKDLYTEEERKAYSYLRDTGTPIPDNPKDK

[11] = target: Voltage-gated inwardly rectifying potassium channel KCNH2 (Homo sapiens, UniProt Q12809); assay: hERG protection from proarrhythmic block, potency, dose response, cell-based, thallium flux (AID 2121); type: ADME
Voltage-gated inwardly rectifying potassium channel KCNH2, sequence (Q12809 whole entry): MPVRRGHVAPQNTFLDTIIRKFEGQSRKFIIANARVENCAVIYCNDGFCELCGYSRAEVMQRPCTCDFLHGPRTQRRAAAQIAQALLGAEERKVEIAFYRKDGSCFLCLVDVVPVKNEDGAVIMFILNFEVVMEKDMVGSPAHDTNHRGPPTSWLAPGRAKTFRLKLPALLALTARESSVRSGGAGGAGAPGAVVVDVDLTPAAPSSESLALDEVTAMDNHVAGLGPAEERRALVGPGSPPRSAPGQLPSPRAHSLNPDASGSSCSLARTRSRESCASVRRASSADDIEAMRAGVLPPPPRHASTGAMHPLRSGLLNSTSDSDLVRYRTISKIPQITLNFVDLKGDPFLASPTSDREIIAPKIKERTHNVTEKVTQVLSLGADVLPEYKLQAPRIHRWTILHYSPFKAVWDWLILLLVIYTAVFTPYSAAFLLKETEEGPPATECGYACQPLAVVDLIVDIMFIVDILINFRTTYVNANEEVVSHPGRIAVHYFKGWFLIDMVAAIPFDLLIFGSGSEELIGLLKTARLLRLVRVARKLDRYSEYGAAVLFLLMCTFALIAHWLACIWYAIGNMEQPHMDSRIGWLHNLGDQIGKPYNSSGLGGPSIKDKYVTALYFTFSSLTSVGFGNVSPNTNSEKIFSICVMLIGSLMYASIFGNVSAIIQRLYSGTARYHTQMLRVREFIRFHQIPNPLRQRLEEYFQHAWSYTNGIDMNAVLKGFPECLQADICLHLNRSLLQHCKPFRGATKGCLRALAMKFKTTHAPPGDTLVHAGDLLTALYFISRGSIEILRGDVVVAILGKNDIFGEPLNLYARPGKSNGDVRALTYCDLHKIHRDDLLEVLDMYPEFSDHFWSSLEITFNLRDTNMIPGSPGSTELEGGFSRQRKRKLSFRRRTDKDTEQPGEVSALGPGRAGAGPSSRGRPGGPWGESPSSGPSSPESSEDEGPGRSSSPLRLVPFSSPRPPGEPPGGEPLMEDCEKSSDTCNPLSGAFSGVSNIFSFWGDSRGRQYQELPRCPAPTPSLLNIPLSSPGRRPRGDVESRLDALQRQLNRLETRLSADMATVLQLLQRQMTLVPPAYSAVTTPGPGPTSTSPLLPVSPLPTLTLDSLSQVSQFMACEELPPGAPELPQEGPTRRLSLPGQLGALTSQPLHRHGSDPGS

Streptococcus = assay: Group A Streptococcus viability loss, dose response, counter-screen for streptokinase expression inhibitor project, luminescence, BacTiterGlo (AID 1915); type: functional, organism-based;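 note: potency for reduction of bacterial viability or growth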
[12] = target: Sphingosine 1-phosphate receptor 2 (Homo sapiens, UniProt O95136); assay: Dose Response Cell-Based Assay for Agonists of the Sphingosine 1-Phosphate Receptor 2 (S1P2): Purchased Analogues. [Related pubchem assays: 1192, 373, 439 ]; type: functional
Sphingosine 1-phosphate receptor 2, sequence (O95136 whole entry): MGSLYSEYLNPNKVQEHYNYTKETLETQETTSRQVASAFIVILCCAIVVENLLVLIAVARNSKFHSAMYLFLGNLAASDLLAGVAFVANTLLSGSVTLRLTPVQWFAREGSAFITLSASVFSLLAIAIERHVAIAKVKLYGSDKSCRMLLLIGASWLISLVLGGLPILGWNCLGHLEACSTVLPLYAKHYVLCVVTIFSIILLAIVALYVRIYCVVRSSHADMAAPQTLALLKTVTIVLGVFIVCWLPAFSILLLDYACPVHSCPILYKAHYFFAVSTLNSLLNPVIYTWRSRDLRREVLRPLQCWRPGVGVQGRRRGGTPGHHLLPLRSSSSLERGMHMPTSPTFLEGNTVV

[13] = target: Sphingosine 1-phosphate receptor 1 (Homo sapiens, UniProt P21453); assay: Dose Response Cell-Based Assay for Agonists of the Sphingosine 1-Phosphate Receptor 1 (S1P1): Purchased Analogues. [Related pubchem assays: 1192, 373, 439 ]; type: functional
Sphingosine 1-phosphate receptor 1, sequence (P21453 whole entry): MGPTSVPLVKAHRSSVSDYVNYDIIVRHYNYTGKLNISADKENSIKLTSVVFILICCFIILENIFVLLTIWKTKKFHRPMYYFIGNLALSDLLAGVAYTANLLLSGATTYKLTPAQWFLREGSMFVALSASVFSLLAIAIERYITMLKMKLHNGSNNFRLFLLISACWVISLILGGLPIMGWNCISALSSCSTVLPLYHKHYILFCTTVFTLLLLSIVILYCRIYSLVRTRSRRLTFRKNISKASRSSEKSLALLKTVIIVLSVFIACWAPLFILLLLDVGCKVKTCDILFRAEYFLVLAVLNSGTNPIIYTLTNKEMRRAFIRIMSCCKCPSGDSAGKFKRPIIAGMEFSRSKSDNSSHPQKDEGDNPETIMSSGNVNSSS

[14] = target: T1, Sphingosine 1-phosphate receptor 3; assay: Dose Response Cell-Based Assay for Agonists of the Sphingosine 1-Phosphate Receptor 3 (S1P3): Purchased Analogues. [Related pubchem assays: 373, 439 ]; type: functional
Genome polyprotein = Genome polyprotein (Hepatitis C virus, UniProt Q2Q167); assay: HCV core protein dimerization inhibitors, dose response, biochemical, TR-FRET (AID 2159); set-up: species or system Hepacivirus hominis;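 note: blocks dimerization of HCV core protein measured by TR-FRET between tagged core106 pairs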
Genome polyprotein, sequence (Q2Q167 whole entry): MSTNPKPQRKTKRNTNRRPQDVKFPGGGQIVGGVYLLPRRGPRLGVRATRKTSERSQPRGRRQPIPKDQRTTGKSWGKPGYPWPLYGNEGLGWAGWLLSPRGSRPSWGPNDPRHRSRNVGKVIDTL

[15] = target: E3 ubiquitin-protein ligase Mdm2 (Homo sapiens, UniProt Q00987); assay: enhancers of MDM2-luciferase reporter signal, concentration-effect titration, project on inhibitors of MDM2 ubiquitin ligase, cellular assay, luminescent readout, 384-well plate format (AID 1394); type: functional;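 note: MDM2 E3 inhibitors raise luminescence so EC50 is for signal enhancement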
E3 ubiquitin-protein ligase Mdm2, sequence (Q00987 whole entry): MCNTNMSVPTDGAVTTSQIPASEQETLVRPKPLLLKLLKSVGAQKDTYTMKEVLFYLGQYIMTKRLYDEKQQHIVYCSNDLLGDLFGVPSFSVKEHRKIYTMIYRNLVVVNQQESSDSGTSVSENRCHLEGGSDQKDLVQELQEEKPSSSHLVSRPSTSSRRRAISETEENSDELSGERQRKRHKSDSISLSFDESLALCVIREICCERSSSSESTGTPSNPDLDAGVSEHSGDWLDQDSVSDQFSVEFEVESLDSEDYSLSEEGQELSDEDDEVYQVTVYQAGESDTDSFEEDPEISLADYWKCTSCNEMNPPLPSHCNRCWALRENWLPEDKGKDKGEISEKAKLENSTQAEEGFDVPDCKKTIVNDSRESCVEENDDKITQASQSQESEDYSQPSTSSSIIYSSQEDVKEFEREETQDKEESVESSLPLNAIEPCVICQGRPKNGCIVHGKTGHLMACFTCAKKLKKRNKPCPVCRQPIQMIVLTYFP

Oxytocin receptor = Oxytocin receptor (Homo sapiens, UniProt P30559); assay: Counterscreen for vasopressin 1 receptor (V1R) agonists: Fluorescence-based cell-based high throughput dose response assay for agonists of the Oxytocin Receptor (OXTR). [Related pubchem assays: 2435 (Primary screen (OXTR agonists in singlicate)), 434964 (Confirmation screen (V1R agonists in triplicate)), 434969 (Counterscreen (OXTR agonists in …; type: functional
Oxytocin receptor, sequence (P30559 whole entry): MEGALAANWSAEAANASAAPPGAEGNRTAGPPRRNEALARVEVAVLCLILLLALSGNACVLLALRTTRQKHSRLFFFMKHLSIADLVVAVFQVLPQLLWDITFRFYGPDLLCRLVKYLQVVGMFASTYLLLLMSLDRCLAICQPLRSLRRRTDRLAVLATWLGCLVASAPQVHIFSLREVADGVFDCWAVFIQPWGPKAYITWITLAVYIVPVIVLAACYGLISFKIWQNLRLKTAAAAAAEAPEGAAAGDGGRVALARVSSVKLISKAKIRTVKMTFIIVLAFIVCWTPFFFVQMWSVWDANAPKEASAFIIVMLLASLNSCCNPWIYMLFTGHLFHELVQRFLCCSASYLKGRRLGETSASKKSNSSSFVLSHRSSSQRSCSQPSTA

Vasopressin V1a receptor = Vasopressin V1a receptor (Homo sapiens, UniProt P37288); assay: Fluorescence-based cell-based high throughput dose response screening assay for agonists of the vasopressin 1 receptor (V1R).; type: functional
Bcl-2-related protein A1 = target: T3, Bcl-2-related protein A1 (Mus musculus, UniProt Q07440); type: functional;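 note: confirmatory dose–response counterscreen on Bfl-1, used to check hits from a UBC13 polyubiquitin inhibitor campaign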
T3 sequence (Q07440 whole entry): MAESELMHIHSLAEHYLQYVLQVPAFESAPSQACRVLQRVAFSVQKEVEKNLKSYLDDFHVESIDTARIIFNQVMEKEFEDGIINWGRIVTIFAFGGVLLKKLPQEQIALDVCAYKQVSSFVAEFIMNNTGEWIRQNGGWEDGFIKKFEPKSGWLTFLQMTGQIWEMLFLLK

[16] = target: T4, Ubiquitin-conjugating enzyme E2 N (Homo sapiens, UniProt P61088); type: functional
T4 sequence (P61088 whole entry): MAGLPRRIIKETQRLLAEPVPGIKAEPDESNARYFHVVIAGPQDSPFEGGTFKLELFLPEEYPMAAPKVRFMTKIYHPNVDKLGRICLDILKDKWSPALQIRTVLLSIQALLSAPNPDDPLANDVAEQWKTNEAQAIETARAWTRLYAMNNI

[17] = target: T4, Ubiquitin-conjugating enzyme E2 N; type: functional; remark: listed apart in the source
[18] = target: T5, Apoptotic protease-activating factor 1 (Homo sapiens, UniProt O14727); type: functional
T5 sequence (O14727 whole entry): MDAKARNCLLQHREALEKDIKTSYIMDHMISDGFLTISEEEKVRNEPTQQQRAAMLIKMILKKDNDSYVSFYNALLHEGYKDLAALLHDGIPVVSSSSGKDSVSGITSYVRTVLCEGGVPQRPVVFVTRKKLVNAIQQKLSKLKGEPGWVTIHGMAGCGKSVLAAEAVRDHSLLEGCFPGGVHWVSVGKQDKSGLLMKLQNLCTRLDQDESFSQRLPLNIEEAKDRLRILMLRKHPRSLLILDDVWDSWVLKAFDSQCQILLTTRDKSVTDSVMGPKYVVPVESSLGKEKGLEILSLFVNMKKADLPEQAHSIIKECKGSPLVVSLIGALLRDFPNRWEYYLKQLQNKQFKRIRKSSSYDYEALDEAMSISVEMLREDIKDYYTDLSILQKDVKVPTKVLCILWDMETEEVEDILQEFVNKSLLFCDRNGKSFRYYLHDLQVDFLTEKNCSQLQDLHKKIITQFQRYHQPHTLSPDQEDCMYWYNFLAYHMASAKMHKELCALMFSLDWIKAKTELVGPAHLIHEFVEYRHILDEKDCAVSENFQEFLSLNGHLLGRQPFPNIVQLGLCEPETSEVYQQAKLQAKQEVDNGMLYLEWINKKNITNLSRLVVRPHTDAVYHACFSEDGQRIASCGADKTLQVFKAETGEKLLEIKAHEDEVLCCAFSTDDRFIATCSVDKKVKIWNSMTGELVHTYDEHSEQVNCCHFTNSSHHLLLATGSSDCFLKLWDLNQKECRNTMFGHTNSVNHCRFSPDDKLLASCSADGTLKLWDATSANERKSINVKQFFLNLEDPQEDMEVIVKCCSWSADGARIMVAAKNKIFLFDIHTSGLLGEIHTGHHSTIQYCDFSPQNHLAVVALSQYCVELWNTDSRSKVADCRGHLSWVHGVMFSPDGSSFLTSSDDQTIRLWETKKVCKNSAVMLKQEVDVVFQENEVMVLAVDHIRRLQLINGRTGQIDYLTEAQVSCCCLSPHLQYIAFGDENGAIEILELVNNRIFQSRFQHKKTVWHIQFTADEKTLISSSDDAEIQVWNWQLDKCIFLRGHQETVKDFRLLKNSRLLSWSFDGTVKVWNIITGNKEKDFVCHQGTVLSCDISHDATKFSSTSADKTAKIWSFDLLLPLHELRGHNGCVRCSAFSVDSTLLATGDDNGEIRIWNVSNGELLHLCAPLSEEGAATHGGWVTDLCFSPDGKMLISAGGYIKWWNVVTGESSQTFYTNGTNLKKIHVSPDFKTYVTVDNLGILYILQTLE

[19] = target: Serine/threonine-protein phosphatase PP1-alpha catalytic subunit (Homo sapiens, UniProt P62136); assay: PP1 phosphatase inhibitors, dose response, biochemical, fluorescence (AID 2394)
[20] = target: Serine/threonine-protein phosphatase (Homo sapiens, UniProt Q9BPW0); assay: PP5 phosphatase inhibitors, dose response, biochemical, fluorescence (AID 2395)
Serine/threonine-protein phosphatase, sequence (Q9BPW0 whole entry): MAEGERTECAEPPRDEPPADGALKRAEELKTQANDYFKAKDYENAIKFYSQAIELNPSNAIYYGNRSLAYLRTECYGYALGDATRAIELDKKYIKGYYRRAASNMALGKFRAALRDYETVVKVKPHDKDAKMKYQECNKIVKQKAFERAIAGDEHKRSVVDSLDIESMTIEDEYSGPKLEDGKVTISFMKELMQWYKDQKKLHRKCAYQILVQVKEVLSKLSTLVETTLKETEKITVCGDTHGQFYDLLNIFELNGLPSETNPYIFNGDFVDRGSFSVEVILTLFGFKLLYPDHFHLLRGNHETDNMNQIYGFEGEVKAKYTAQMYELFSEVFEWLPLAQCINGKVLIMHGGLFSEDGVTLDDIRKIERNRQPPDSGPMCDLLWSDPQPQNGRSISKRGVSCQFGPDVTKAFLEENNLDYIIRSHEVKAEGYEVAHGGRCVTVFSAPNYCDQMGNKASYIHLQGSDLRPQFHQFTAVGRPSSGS

[21] = target: Induced myeloid leukemia cell differentiation protein Mcl-1 (Homo sapiens, UniProt Q07820); type: functional
[22] = target: Mitochondrial peptide methionine sulfoxide reductase (Bos taurus, UniProt P54149); assay: Absorbance-based biochemical high throughput dose response assay for activators of Methionine sulfoxide reductase A (MsrA).; type: functional

Compound: COc1ccc(CNc2ncnc3sccc23)cc1
- EC50 [1]: > 120 µM (not active)
- AC50 (INS1): 5.39 µM (active)
- AC50 [2]: 1.66 µM (active)
- AC50 [3]: 36 µM (active)
- AC50 [4]: 8.63 µM (active)

Compound: COc1ccc(NS(=O)(=O)Cc2ccc(N)cc2)cc1
- IC50 (NADPH oxidase 1): > 17 µM (not active)

Compound: FC(F)(F)c1cccc(NC(S)=NC(c2ccccc2)c2ccccc2)c1
- IC50 [5]: > 50 µM (not active)
- EC50 [6]: 2.22 µM (active)
- EC50 [7]: 9.61 µM (active)
- IC50 [8]: 3.29 µM (active)
- AC50 [2]: 7.17 µM (active)
- AC50 [3]: 21.2 µM (active)
- AC50 [4]: 26.2 µM (active)

Compound: COc1ccc(NC(=O)c2cccc3c(Br)cccc23)cc1
- EC50 [9]: 0.965 µM (active)

Compound: CC(C)COc1ccc(-c2nn(-c3ccccc3)cc2C(=O)Nc2nccs2)cc1
- EC50 [10]: 48.3 µM (active)
- EC50 (Streptokinase A): > 150 µM (not active)
- EC50 [6]: 2.21 µM (active)
- EC50 [11]: 1.04 µM (active)
- EC50 [7]: > 30 µM (not active)
- EC50 (Streptococcus): > 150 µM (not active)

Compound: O=C(CSc1nnc(-c2ccco2)o1)N(C1CCCCC1)C1CCCCC1
- EC50 [12]: > 10 µM (not active)
- EC50 [13]: 0.278 µM (active)
- EC50 [14]: 0.11 µM (active)

Compound: CC1(O)C(=O)C=C2C=C(c3ccc(C#N)cc3)OC=C2C1=O (stereo unspecified)
- IC50 (Genome polyprotein): > 49.8 µM (not active)

Compound: CCOC(=O)C1CCN(C(=S)Nc2cc(C)ccc2C)CC1
- EC50 [15]: 4.34 µM (not active)

Compound: C#CCOCCOCCOCCNc1nc(N2CCN(C(=O)CCCCCCCCCCNC(=O)[C@@H](CCC(=O)O)n3cc(CCCCCN)nn3)CC2)nc(N2CCN(C(=O)CCCCCCCCCCNC(=O)[C@H](CCCCN)n3cc(C[C@@H](C)CC)nn3)CC2)n1
- EC50 (Oxytocin receptor): > 29.9 µM (not active)
- EC50 (Vasopressin V1a receptor): 8.37 µM (active)
- IC50 (Bcl-2-related protein A1): > 20 µM (inactive)
- IC50 [16]: 11.4 µM (active)
- IC50 [17]: 4.52 µM (active)
- IC50 [18]: 27.2 µM (active)

Compound: Cc1cc(C)c(S(=O)(=O)/N=C2/C=C(Sc3nc[nH]n3)C(=O)c3ccccc32)cc1C
- IC50 [19]: 18.6 µM (not active)
- IC50 [20]: 4.19 µM (active)
- IC50 [21]: 3.07 µM (active)
- AC50 (INS1): 2.6 µM (active)
- EC50 [22]: > 104 µM (inactive)
